# Laboratory results published in paper PMC2787625, “A Neuronal Acetylcholine Receptor Regulates the Balance of Muscle Excitation and Inhibition in Caenorhabditis elegans” (PLoS Biology, 2009).
# Like-named read-outs stand apart in the source and are kept apart here.
# What was measured:
# [1] = tested on: ACR-2R (ACR-2-containing acetylcholine receptor: UNC-38, UNC-63, ACR-12, ACR-2, ACR-3); conditions: agonist; 1 mM external CaCl2; 500 µM and 1 mM points excluded from fit (open-channel block)
# [2] = tested on: ACR-2R (ACR-2-containing acetylcholine receptor: UNC-38, UNC-63, ACR-12, ACR-2, ACR-3); conditions: agonist; 1 mM external CaCl2; 500 µM and 1 mM points excluded from fit (open-channel block); n2420 gain-of-function subunit ACR-2(V13′M)
structure (smiles),measurement,setting,value
CC(=O)OCC[N+](C)(C)C [acetylcholine],EC50,[1],14.1 ± 1.2 µM
same,EC50,[2],17.8 ± 1.4 µM
